Source: patent US20110045033A1, “Combination of Itriglumide and Proton Pump Inhibitors in the Treatment of Gastrointestinal and Related Disorders” (priority 2005, published 2011)

Key:
[1] = test system: chronic model of reflux esophagitis in rats; assay: Chronic acid reflux esophagitis in rat (forestomach ligation and pyloric stenosis); assay type: in vivo; details: 15 days; for Occurrence of Esophagitis: animals affected/surviving
Source text: The method was according to Omura N., et al. (Scand. J gastroenterol. 1999; 34:948-953) with slight modifications.
Male Wistar rats, 10 weeks old, were kept in controlled animal room 1 week prior to use and fed with standard diet. A day before the experiment rats were deprived of food but allowed free access to water.
This model consists of gastric outlet obstruction obtained by ligation of forestomach and pyloric stenosis. Rats were operated under air/halothane anaesthesia; after opening the abdomen with a median incision, the transitional region between forestomach and the glandular portion was ligated and then the forestomach was blocked with other two ligations. Pyloric stenosis were obtained by wrapping a duodenum near the pylorus with a piece (about 2 mm) of a catheter (3.5 mm inner diameter) as a ring. The ring was closed by thermocautery and fixed to the pylorus with a nylon thread. The abdomen was closed by suturing.
After the operation the rats (10 animals per group) were deprived of diet for 48 h but had free access to water.
Drugs were administered once a day, starting on day zero, by subcutaneous injection. During the experiment body weight as well as the mortality were recorded.
The animals were killed 15 days later by overdose of ether inhalation. The abdomen was opened and the esophagus excised and placed on a cork plate. The presence and extension of esophagitis sites was evaluated by macroscopic observation. Each site of esophagitis was measured (mm of length×mm of width). Data were expressed as mm^2 of esophagitis area (mean area group).

[2] = test system: acute reflux esophagitis in pylorus-ligated rats; assay: Acute reflux esophagitis in pylorus-ligated rats (macroscopic lesion index); assay type: in vivo, rat; set-up: key to Average Score lesions: lesion index 0 = no lesion to 6 = hemorrhage >40 mm or perforation; details: for % Effect vs. control / Average Score lesions: 3 h after ligation; for ED50: Rattus norvegicus, intraduodenal, drug administered separately, intraduodenally, from dose-response regression line, read-out: ED50 (dose which reduces of 50% the esophagus lesions)
Experimental: Male rats of 175-200 g body weight were fasted for 24 hours prior the experiment. Water was allowed ad libitum. Under ether anaesthesia, the abdomen was incised along the midline, and both pylorus and limiting ridge (transitional region between the forestomach and corpus) were simultaneously ligated. Consequently, the total capacity of the stomach to hold gastric juice was greatly diminished, resulting in reflux of gastric juice into the esophagus. Following ligation of pylorus and limiting ridge, the test compounds were given intraduodenally (5 ml/kg), and the abdomen was closed by suturing. After 3 hours, rats were killed by ether overdose and the gastroesophageal portion was excised. The lesion in the thoracic esophagus was scored macroscopically, using a lesion index according to the following criteria: no lesion as 0; oedema as 1; reddening as 2; the length of hemorrhagic area <20 mm as 3; the length of hemorrhagic area 20-30 mm as 4; the length of hemorrhagic area 30-40 mm as 5; the length of hemorrhagic area >40 mm or perforation as 6.
The doses of the tested compounds which reduce of 50% the esophagus lesions (ED50) were calculated from the dose-response regression line.

[3] = Itriglumide 10 mg/kg s.c. once a day
[4] = Itriglumide 2.5 mg/kg intraduodenally
[5] = Itriglumide 5.0 mg/kg intraduodenally
[6] = Itriglumide 10 mg/kg intraduodenally
[7] = Itriglumide 20 mg/kg intraduodenally
[8] = Omeprazole 0.5 mg/kg s.c. once a day
[9] = Omeprazole 1 mg/kg s.c. once a day
[10] = Omeprazole 2 mg/kg s.c. once a day
[11] = Omeprazole 0.1 mg/kg intraduodenally
[12] = Omeprazole 0.3 mg/kg intraduodenally
[13] = Omeprazole 1.0 mg/kg intraduodenally
[14] = Omeprazole 3.0 mg/kg intraduodenally

SMILES: Cc1cc(C)c(NC(=O)C[C@H](CC(=O)O)c2cccc3ccccc23)c(C(=O)N2CCC3(CCCC3)CC2)c1 [Itriglumide, (R)-1-napthalenepropanoic acid-β[2[(2-(8-azaspiro[4.5.]dec-8-ylcarbonyl)4,6-dimethylphenyl]amino]-2-oxoethyl]]
- % Protection vs. control [1, 3]: 42.1%
- Survival Rate (%) [1, 3]: 90%
- Total average size of ulcers (mm^2) [1, 3]: 33 mm^2
- Occurrence of Esophagitis [1, 3]: 4/9
- % Effect vs. control [2, 4]: 0%
- Average Score lesions [2, 4]: 5.2
- % Effect vs. control [2, 5]: 27.5%
- Average Score lesions [2, 5]: 3.7
- % Effect vs. control [2, 6]: 51.0%
- Average Score lesions [2, 6]: 2.5
- % Effect vs. control [2, 7]: 82.3%
- Average Score lesions [2, 7]: 0.9
- ED50 [2]: 9.1 mg/kg

SMILES: COc1ccc2[nH]c([S+]([O-])Cc3ncc(C)c(OC)c3C)nc2c1 (centres unmarked) [Omeprazole]
- % Protection vs. control [1, 8]: 17.5%
- Survival Rate (%) [1, 8]: 80%
- Total average size of ulcers (mm^2) [1, 8]: 47 mm^2
- Occurrence of Esophagitis [1, 8]: 6/8
- % Protection vs. control [1, 9]: 28.0%
- Survival Rate (%) [1, 9]: 90%
- Total average size of ulcers (mm^2) [1, 9]: 41 mm^2
- Occurrence of Esophagitis [1, 9]: 6/9
- % Protection vs. control [1, 10]: 49.1%
- Survival Rate (%) [1, 10]: 90%
- Total average size of ulcers (mm^2) [1, 10]: 29 mm^2
- Occurrence of Esophagitis [1, 10]: 3/9
- ED50 ([1]; Rattus norvegicus, sc, 360 h, Omeprazole alone, s.c. once a day): 2.2 mg/kg
- % Effect vs. control [2, 11]: 3.4%
- Average Score lesions [2, 11]: 5.6
- % Effect vs. control [2, 12]: 0%
- Average Score lesions [2, 12]: 5.8
- % Effect vs. control [2, 13]: 17.2%
- Average Score lesions [2, 13]: 4.8
- % Effect vs. control [2, 14]: 53.4%
- Average Score lesions [2, 14]: 2.7
- ED50 [2]: 4.9 mg/kg
